In a melting point compilation (Tetko et al.):

`CC(=O)Nc1ccc(OC2CCCCC2O)cc1` (stereo not drawn) gave a melting point of 139 to 141 °C. Compound `CNC(=O)c1cccc(N)c1` has a melting point of 122 to 124 °C. In the case of `O=C(O)C1CCN(S(=O)(=O)c2cccs2)CC1`, the melting point is reported as 133 to 135 °C. `CC(=O)c1cc([N+](=O)[O-])c(Cl)s1` gave a melting point of 74 to 76 °C. `c1ccc2sc(NC3CCCCC3)nc2c1` gave a melting point of 100 to 102 °C. With `CCOc1cc(C=O)cc(Cl)c1O` the melting point was 145 to 147 °C. With `COC(=O)c1ccc(C=O)[nH]1` the melting point was 99 to 101 °C. Work on `O=Cc1cc2c(cc1O)OCO2` yielded a melting point of 114 to 116 °C. For `Nc1ccccc1CN1CCC(O)CC1`, the melting point was 112 to 114 °C. In the case of `CC(C)Cn1ncc(C(=O)O)c1C(F)F`, the melting point is reported as 99 to 101 °C. Work on `COc1ccc(-n2c(S)nc3ccccc32)cc1` yielded a melting point of 213 to 215 °C. `COc1ccc(C(N)CC(=O)O)cc1` (stereo not drawn) gave a melting point of 237 to 239 °C. With `NC(=O)C(O)C1CC1` (stereo not drawn) the melting point was 115 to 117 °C. In the case of `Cc1cc(SC(C)(C)C)ccc1N`, the melting point is reported as 69 to 71 °C. Compound `NC(=O)CCCO` has a melting point of 42 to 44 °C. `O=C(O)CN1Cc2ccccc2C1` gave a melting point of 209 to 211 °C. `Cc1nc2[nH]cnc2cc1Br` gave a melting point of 197 to 199 °C. `Cc1[nH]ncc1Cl` gave a melting point of 64 to 66 °C. Compound `COC(=O)c1ccnc(C#N)c1` has a melting point of 109 to 111 °C. With `COc1ccc(C(CC(=O)O)NC(C)=O)cc1` (stereo not drawn) the melting point was 186 to 188 °C. `O=c1c2ccccc2oc2ccc([N+](=O)[O-])cc12` showed a melting point of 203 to 205 °C. With `CC(C(=O)O)n1nnnc1C(C)(C)C` (stereo not drawn) the melting point was 171 to 173 °C. Compound `CC1CCc2c(sc3nc(S)nc(S)c23)C1` (stereo not drawn) has a melting point of 337 to 339 °C. Work on `NC(=O)C=C1CCCC1` yielded a melting point of 141 to 143 °C. Work on `Nc1cc(-c2c(F)cc(F)cc2F)no1` yielded a melting point of 131 to 133 °C. Work on `O=C(O)CNC(=O)c1cccc(O)c1` yielded a melting point of 174 to 176 °C. For `Nc1nnc(-c2ccccn2)[nH]1`, the melting point was 199 to 201 °C. Compound `CCn1c2ccccc2c2cc(CNCCCO)ccc21` has a melting point of 76 to 78 °C. `CC(C)(C)c1ccc(CCC(=O)O)cc1` gave a melting point of 105 to 107 °C. `CCn1c(N)c(-c2csc(C)n2)c(=O)[nH]c1=O` showed a melting point of 250 to 252 °C. For `O=C(O)CSCC(=O)c1ccccc1`, the melting point was 95 to 97 °C. For `O=C1C=C2NCCC=C2O1`, the melting point was 109 to 111 °C. In the case of `O=C(O)/C=C/c1cc(Cl)c2c(c1)OCCCO2`, the melting point is reported as 178 to 180 °C. Work on `CN(C)C1CCN(c2ccc(N)cc2F)CC1` yielded a melting point of 124 to 126 °C. For `CN1CCC(C(=O)O)c2ccccc21` (stereo not drawn), the melting point was 99 to 101 °C. Work on `O=C(O)Cc1cc(-c2ccccc2)on1` yielded a melting point of 172 to 174 °C. `O=C1NC(=O)c2cc(F)ccc21` gave a melting point of 183 to 185 °C. `CS(=O)(=O)c1cc(S(N)(=O)=O)ccc1F` showed a melting point of 202 to 204 °C. With `Cc1cccnc1NC(=O)C1CCNCC1` the melting point was 136 to 138 °C. For `CCOC1CCN(C(=O)Nc2cccc(C(=O)O)c2)CC1`, the melting point was 179 to 181 °C. `Cc1cc(C)c2c(c1)c(C)cc1nnc(S)n12` gave a melting point of 262 to 264 °C. `COc1cc(C(=O)O)n(-c2ncccc2Cl)n1` showed a melting point of 242 to 244 °C. Compound `O=C1CNc2ccncc2N1` has a melting point of 259 to 261 °C. With `Cc1nn(-c2ccc(F)cc2)nc1C(=O)O` the melting point was 167 to 169 °C. For `O=C(Nc1ccc(-n2cncn2)nc1)OCC(F)(F)F`, the melting point was 192 to 194 °C. `[N-]=[N+]=Nc1cccc2cccnc12` gave a melting point of 42 to 44 °C. In the case of `O=C(CO)NCc1ccc(F)cc1`, the melting point is reported as 102 to 104 °C. For `Cc1ccccc1CCNC(=O)C(C)Cl` (stereo not drawn), the melting point was 59 to 61 °C. Work on `N#Cc1ccnc(Oc2ccccc2Cl)c1` yielded a melting point of 79 to 81 °C. With `Cc1nn(Cc2ccc(F)cc2)c2[nH]nc(N)c12` the melting point was 140 to 142 °C. Compound `Nc1ccccc1-c1ccncc1` has a melting point of 83 to 85 °C. `Nc1ccccc1CSc1ccc(C(F)(F)F)cn1` gave a melting point of 74 to 76 °C. Work on `Cc1ccc(OCc2nc(CC(=O)O)cs2)cc1` yielded a melting point of 145 to 147 °C. For `NC(=O)c1ccc(N)cn1`, the melting point was 169 to 171 °C. Compound `COC(=O)c1ccc(S(N)(=O)=O)cc1Cl` has a melting point of 124 to 126 °C. `O=C(O)c1ccccc1SCc1ccsc1` showed a melting point of 213 to 215 °C. `CC(C)c1cc(C(=O)O)nn1C` gave a melting point of 87 to 89 °C. `NC(=O)c1ccoc1` showed a melting point of 174 to 176 °C. `CS(=O)(=O)c1ccc(Br)c(S(=O)(=O)Cl)c1` showed a melting point of 160 to 162 °C. In the case of `O=C(O)C(Sc1ccc(F)c(Cl)c1)c1ccccc1` (stereo not drawn), the melting point is reported as 74 to 76 °C. For `Sc1nnc(-c2ccco2)n1-c1ccccc1`, the melting point was 121 to 123 °C. Compound `CCN(CC)S(=O)(=O)c1ccc2nc(O)cc(C(=O)O)c2c1` has a melting point of 310 to 312 °C. Work on `OC1C2CCCC1CN(Cc1ccccc1)C2` (stereo not drawn) yielded a melting point of 88 to 90 °C. With `CC(C)NC(=O)NC(=O)CCl` the melting point was 86 to 88 °C. In the case of `O=C(c1cc(F)ccc1F)c1ccccc1Cl`, the melting point is reported as 67 to 69 °C. For `N#Cc1cc[nH]c1`, the melting point was 55 to 57 °C. With `Cc1cc(C(=O)O)cc(C)c1OC(F)F` the melting point was 189 to 191 °C. In the case of `CNc1ccncn1`, the melting point is reported as 77 to 79 °C. For `CS(=O)(=O)Nc1cccc(CN)c1`, the melting point was 126 to 128 °C. With `COc1ccc(NC(=O)COc2ccccc2C(=O)O)cc1Cl` the melting point was 229 to 231 °C. Compound `O=C(O)C1CCCCN1C(=O)c1ccc(Br)c(F)c1` (stereo not drawn) has a melting point of 134 to 136 °C. For `O=C(O)c1c2c(nc3ccccc13)C(=Cc1ccccc1)CC2`, the melting point was 279 to 281 °C. `O=c1ccn(C2CC2)c(S)n1` showed a melting point of 238 to 240 °C.
